# Results from patent US20230002324A1, “NAPHTHOQUINONE DERIVATIVES FOR TREATMENT OF OXIDATIVE STRESS DISORDERS” (PTC THERAPEUTICS, INC., priority 2019, published 2023).
# pEC50: −log10 of the molar value.
# Assays:
# Format in all cases: cell-based
# [1] = test system: Q7 cells (ST HDH Q7/7; immortalized mouse striatal cells); assay: Q7 RSL3 challenge cell survival (rescue) assay; conditions: 18 h, read-out: Q7 RSL3 Survival EC50
# Source text: (§1) In neuronal cells excess extracellular glutamate inhibits the cystine/glutamate antiporter leading to intracellular cysteine depletion, GSH depletion, reactive oxygen species (ROS) production and cell death, a phenomenon termed oxidative glutamate toxicity, oxytosis, or ferroptosis. […] Q7 cells (ST HDH Q7/7; immortalized mouse striatal cells) challenged with cystine-free media or the selective, irreversible GPX4 inhibitor, methyl (1S,3R)-2-(2-chloroacetyl)-1-(4-(methoxycarbonyl)phenyl)-2,3,4,9-tetrahydro-1H-pyrido[3,4-b]indole-3-carboxylate (hereafter referred to as RSL3), recapitulate this phenotype, as do normal human fibroblasts (NHF) challenged with RSL3. An initial screen was performed to identify compounds effective in rescuing Q7 and/or NHF cells from death resulting from cystine deprivation or RSL3 challenge. This method is further described in Yonezawa et al., J. Neurochem 67, 566-573 (1996), Li et al., J Neurosci., 23, 5816-5826 (2003), Yang and Stockwell, Chem Biol., 15: 234-45 (2008), and Yang et al., Cell 156, 317-331 (2014). See also Hinman A, Holst C R, Latham J C, et al. Vitamin E hydroquinone is an endogenous regulator of ferroptosis via redox control of 15-lipoxygenase. PLoS One. 2018; 13(8):e0201369. Published 2018 Aug. 15. doi:10.1371/journal.pone.0201369; and Kahn-Kirby A H, Amagata A, Maeder C I, et al. Targeting ferroptosis: A novel therapeutic strategy for the treatment of mitochondrial disease-related epilepsy. PLoS One. 2019; 14(3):e0214250. Published 2019 Mar. 28. doi:10.1371/journal.pone.0214250.
# (§2) DMEM (Catalog no. 11995-040), DMEM without Cystine (Catalog no. 21013-024), DMEM without Glucose (Catalog A1443001), PBS (Phosphate buffered saline), Penicillin-streptomycin mix, L-Glutamine, Glucose, Phenol Red, and Pyruvate were purchased from ThermoFisher Scientific (Gibco). Fetal Bovine Serum was obtained from Mediatech, Inc., or Sigma Aldrich. Mouse striatum derived ST HDH Q7/7 (Q7) and normal human skin fibroblast (NHF, product number GM21811) cells were obtained from the Coriell Institute. Methionine and Vitamin K2 were purchased from Sigma Aldrich. RSL3 was synthesized as previously described (see e.g. US Patent Publication US2010/0081654). Cell Titer Glo 2.0 was purchased from Promega. Q7 cell culture medium (Q7 growth medium) was made by combining 50 mL Fetal Bovine Serum, 100 U/mL penicillin, and 100 microgram/mL streptomycin; DMEM was added to make the volume up to 500 mL. Assay medium for the Cystine Deprivation assay was prepared by combining 50 mL Fetal Bovine Serum, 100 U/mL penicillin, 100 microgram/mL streptomycin, 4 mM L-Glutamine, 1 mM Pyruvate and 30 mg/L Methionine; DMEM without Cystine was added to make the volume up to 500 mL. NHF cell culture medium (NHF growth medium) was made by combining 50 mL Fetal Bovine Serum, 100 U/mL penicillin, 100 microgram/mL streptomycin, 2.8 mL 20% Glucose solution (final concentration 6 mM), L-glutamine (final concentration 2 mM), phenol red (final concentration 15 mg/L); DMEM without Glucose was added to make the volume up to 500 mL. Assay medium for the RSL3 challenge assay was identical to Growth medium. While not in use during the course of the experiments, these solutions were stored at 4° C. The cells were grown in 150-cm^2 tissue culture-treated flasks. Every third or fourth day, the cells were sub-cultured by trypsinization and re-seeded at a cell density of 600,000 (Q7) or 300,000 (NHF) cells per flask.
# (§3) Q7 or NHF cells were cultured routinely as described herein. For 384-well cell survival assays, cells were seeded in clear bottom, black wall 384-well tissue culture-treated polystyrene plates by re-suspending a cell suspension at a density of 50,000 cells/mL in growth medium, then dispensing 60 microliters of cell suspension per well using either an electronic multichannel pipette or a Multidrop™ Combi Reagent Dispenser (ThermoFisher Scientific), corresponding to 3,000 cells/well. […]
# [2] = test system: Q7 cells (ST HDH Q7/7; immortalized mouse striatal cells); assay: Q7 Cystine Deprivation cell survival (rescue) assay; conditions: Q7 cells, cystine-free medium, 18 h, Cell Titer Glo, 50% relative viability vs Vitamin K2 (1 micromolar), read-out: Q7 Cystine Deprivation Survival EC50
# Source text: as §1, §2, §3
# [3] = test system: normal human fibroblasts (NHF, GM21811); assay: NHF GM21811 RSL3 challenge cell survival (rescue) assay; conditions: Fibroblast, NHF cells, RSL3 2 micromolar, 48 h, Cell Titer Glo, read-out: NHF GM21811 RSL3 Survival EC50
# Source text: as §1, §2, §3
# [4] = Q7 cells, RSL3 2 micromolar, Cell Titer Glo
Structure (SMILES),"pEC50 [1, 4]",pEC50 [3],further results
"[2H]C([2H])([2H])C1=C(C([2H])([2H])c2ccc(C(F)(F)F)cn2)C(=O)c2ccccc2C1=O [Example 22, 2-(methyl-d3)-3-((5-(trifluoromethyl)pyridin-2-yl)methyl-d2)naphthalene-1,4-dione]",> 7.30,–,–
"CC1=C(Cc2ccc(C(F)(F)F)cn2)C(=O)c2cc(C)ccc2C1=O [Example 42, 2,6-dimethyl-3-((5-(trifluoromethyl)pyridin-2-yl)methyl)naphthalene-1,4-dione]",–,> 7.30,pEC50 [2]: > 7.30
"CC1=C(Cc2ccc(C(F)(F)F)cn2)C(=O)c2cc(C)c(C)cc2C1=O [Example 43, 2,6,7-trimethyl-3-((5-(trifluoromethyl)pyridin-2-yl)methyl)naphthalene-1,4-dione]",6.00 to 6.60,–,pEC50 [2]: 6.60 to 7.30
"CC1=C(Cc2ccc(C(F)(F)F)cn2)C(=O)c2ccc(F)cc2C1=O [Example 44, 6-fluoro-3-methyl-2-((5-(trifluoromethyl)pyridin-2-yl)methyl)naphthalene-1,4-dione]",–,> 7.30,pEC50 [2]: > 7.30
"CC1=C(Cc2ccc(F)cn2)C(=O)c2cc(F)ccc2C1=O [Example 47, 6-fluoro-3-((5-fluoropyridin-2-yl)methyl)-2-methylnaphthalene-1,4-dione]",> 7.30,–,pEC50 [2]: > 7.30
"CC1=C(Cc2ccc(C(F)(F)F)cn2)C(=O)c2cc(F)cc(F)c2C1=O [Example 49, 5,7-difluoro-3-methyl-2-((5-(trifluoromethyl)pyridin-2-yl)methyl)naphthalene-1,4-dione]",> 7.30,–,pEC50 [2]: > 7.30
"CC1=C(Cc2ccc(C(F)(F)F)cn2)C(=O)c2c(F)cc(F)cc2C1=O [Example 50, 5,7-difluoro-2-methyl-3-((5-(trifluoromethyl)pyridin-2-yl)methyl)naphthalene-1,4-dione]",> 7.30,–,pEC50 [2]: > 7.30
"CC1=C(Cc2ccc(C(F)(F)F)cn2)C(=O)c2cc(Cl)cc(Cl)c2C1=O [Example 58, 5,7-dichloro-3-methyl-2-[[5-(trifluoromethyl)-2-pyridyl]methyl]naphthalene-1,4-dione]",–,–,pEC50 [1]: > 7.30
"CC1=C(Cc2ccc(C(F)(F)F)cn2)C(=O)c2ccc(Cl)cc2C1=O [Example 59, 6-chloro-3-methyl-2-[[5-(trifluoromethyl)-2-pyridyl]methyl]naphthalene-1,4-dione]",> 7.30,–,–
"CC1=C(Cc2ccc(C(F)(F)F)cn2)C(=O)c2cc(F)c(F)cc2C1=O [Example 78, 6,7-difluoro-2-methyl-3-((5-(trifluoromethyl)pyridin-2-yl)methyl)naphthalene-1,4-dione]",> 7.30,–,–
"CC1=C(Cc2ccc(C(F)(F)F)cn2)C(=O)c2ccc(F)c(F)c2C1=O [Example 80, 5,6-difluoro-3-methyl-2-((5-(trifluoromethyl)pyridin-2-yl)methyl)naphthalene-1,4-dione]",> 7.30,–,–
"CCCC1=C(Cc2ccc(C(F)(F)F)c(C#N)n2)C(=O)c2c(F)ccc(F)c2C1=O [Example 85, 6-((5,8-difluoro-1,4-dioxo-3-propyl-1,4-dihydronaphthalen-2-yl)methyl)-3-(trifluoromethyl)picolinonitrile]",> 7.30,–,–
"CC1=C(Cc2ccc(C(F)(F)F)c(C#N)n2)C(=O)c2c(F)c(F)cc(F)c2C1=O [Example 130, 6-((5,7,8-trifluoro-3-methyl-1,4-dioxo-1,4-dihydronaphthalen-2-yl)methyl)-3-(trifluoromethyl)picolinonitrile]",< 6.00,–,–
"CCC1=C(Cc2ccc(C(C)(F)F)cn2)C(=O)c2ccccc2C1=O [Example 137, 2-((5-(1,1-difluoroethyl)pyridin-2-yl)methyl)-3-ethylnaphthalene-1,4-dione]",–,> 7.30,–
"CCC1=C(Cc2ccc(OC(F)(F)F)cn2)C(=O)c2c(F)ccc(F)c2C1=O [Example 138, 2-ethyl-5,8-difluoro-3-((5-(trifluoromethoxy)pyridin-2-yl)methyl)naphthalene-1,4-dione]",–,> 7.30,–
"CCC1=C(Cc2ccc(C(F)(F)F)c(C)n2)C(=O)c2c(F)ccc(F)c2C1=O [Example 139, 2-ethyl-5,8-difluoro-3-((6-methyl-5-(trifluoromethyl)pyridin-2-yl)methyl)naphthalene-1,4-dione]",–,> 7.30,–
"CCC1=C(Cc2ccc(F)c(C)n2)C(=O)c2c(F)ccc(F)c2C1=O [Example 140, 2-ethyl-5,8-difluoro-3-((5-fluoro-6-methylpyridin-2-yl)methyl)naphthalene-1,4-dione]",–,> 7.30,–
"CCC1=C(Cc2ccc(C(F)(F)C(F)(F)F)cn2)C(=O)c2c(F)ccc(F)c2C1=O [Example 141, 2-ethyl-5,8-difluoro-3-((5-(perfluoroethyl)pyridin-2-yl)methyl)naphthalene-1,4-dione]",–,> 7.30,–
"CCC1=C(Cc2ccc(OC(F)(F)F)cn2)C(=O)c2c(F)cc(F)cc2C1=O [Example 142, 2-ethyl-5,7-difluoro-3-((5-(trifluoromethoxy)pyridin-2-yl)methyl)naphthalene-1,4-dione]",–,> 7.30,–
"COc1cnc(CC2=C(C)C(=O)c3ccccc3C2=O)cc1C(F)(F)F [Example 145, 2-((5-methoxy-4-(trifluoromethyl)pyridin-2-yl)methyl)-3-methylnaphthalene-1,4-dione]",–,> 7.30,–
"CCC1=C(Cc2cc(C)c(F)cn2)C(=O)c2ccccc2C1=O [Example 146, 2-ethyl-3-((5-fluoro-4-methylpyridin-2-yl)methyl)naphthalene-1,4-dione]",–,> 7.30,–
"CCC1=C(Cc2cc(C(F)(F)F)c(OC)cn2)C(=O)c2ccccc2C1=O [Example 147, 2-ethyl-3-((5-methoxy-4-(trifluoromethyl)141yridine-2-yl)methyl)naphthalene-1,4-dione]",–,> 7.30,–
"CCC1=C(Cc2ccc(C(F)(F)C(F)(F)F)cn2)C(=O)c2ccccc2C1=O [Example 148, 2-ethyl-3-((5-(perfluoroethyl)142yridine-2-yl)methyl)naphthalene-1,4-dione]",–,> 7.30,–
"CCC1=C(Cc2cc(C(F)(F)F)c(C)cn2)C(=O)c2ccccc2C1=O [Example 149, 2-ethyl-3-((5-methyl-4-(trifluoromethyl)pyridin-2-yl)methyl)naphthalene-1,4-dione]",–,> 7.30,–
"CC1=C(Cc2ccc(C(F)(F)F)c[n+]2[O-])C(=O)c2ccccc2C1=O [Example 150, 2-((3-methyl-1,4-dioxo-1,4-dihydronaphthalen-2-yl)methyl)-5-(trifluoromethyl)pyridine 1-oxide]",–,> 7.30,–
"CCC1=C(Cc2ccc(C(F)(F)F)c(OC)n2)C(=O)c2c(F)ccc(F)c2C1=O [Example 152, 2-ethyl-5,8-difluoro-3-((6-methoxy-5-(trifluoromethyl)pyridin-2-yl)methyl)naphthalene-1,4-dione]",–,> 7.30,–
"CCC1=C(Cc2ccc(C(F)(F)F)c(O)n2)C(=O)c2c(F)ccc(F)c2C1=O [Example 153, 2-ethyl-5,8-difluoro-3-((6-hydroxy-5-(trifluoromethyl)pyridin-2-yl)methyl)naphthalene-1,4-dione]",–,> 7.30,–
